From PubChem BioAssay AID1259408 (Genetic Toxicology Data Bank (GENE-TOX), 2018)
Active and inactive are the calls of the source. How the calls were made is not given here.

Tested on: GENE-TOX genotoxicity assays, various organisms and cells
Test: GENE-TOX mutagenicity studies
Details: for call: Assay Type: In vivo carcinogenicity studies
Source text: GENE-TOX provides genetic toxicology (mutagenicity) test data from expert peer review of open scientific literature for more than 3,000 chemicals from the United States Environmental Protection Agency (EPA). GENE-TOX was established to select assay systems for evaluation, review data in the scientific literature, and recommend proper testing protocols and evaluation procedures for these systems.
GENE-TOX covers the years 1991 - 1998. It is no longer updated.
This is an archive assay for GENE-TOX mutagenicity studies.

[1] = Species/Cell Type: Escherichia coli polA (W3119 vs P3478), Assay Type: Rec-assay, DNA effects (bacterial DNA repair), Assay Code: RE1T, Evaluation Type: Evaluation A (Pre-1980)
[2] = Species/Cell Type: Salmonella typhimurium (one or more of the five standard strains: TA98, TA100, TA1535, TA1537, and TA1538), Assay Type: Histidine reverse gene mutation, Ames assay, Assay Code: SAL+*, Activation: With metabolic activation, Evaluation Type: Evaluation A (Pre-1980)
[3] = Species/Cell Type: Salmonella typhimurium, Assay Type: Forward and reverse gene mutation, host-mediated assay, Assay Code: HMA+, Evaluation Type: Evaluation A (Pre-1980)
[4] = Species/Cell Type: Nonhuman, Assay Type: Sister-chromatid exchange (SCE) in vitro, Assay Code: SC2+D, Dose Response: With dose response, Evaluation Type: Evaluation B (Post-1980)
[5] = Species/Cell Type: Salmonella typhimurium (one or more of the five standard strains: TA98, TA100, TA1535, TA1537, and TA1538), Assay Type: Histidine reverse gene mutation, Ames assay, Assay Code: SALT, Evaluation Type: Evaluation A (Pre-1980)
[6] = Species/Cell Type: Salmonella typhimurium (one or more of the five standard strains: TA98, TA100, TA1535, TA1537, and TA1538), Assay Type: Histidine reverse gene mutation, Ames assay, Assay Code: SAL+, Evaluation Type: Evaluation A (Pre-1980)
[7] = Species/Cell Type: Drosophila melanogaster, Assay Type: Sex-linked recessive lethal gene mutation, Assay Code: SRLT, Evaluation Type: Evaluation A (Pre-1980)
[8] = Species/Cell Type: Escherichia coli polA (W3119 vs P3478), Assay Type: Rec-assay, DNA effects (bacterial DNA repair), Assay Code: RE1+, Evaluation Type: Evaluation A (Pre-1980)

Cc1cc(-c2ccccc2C)ccc1N
mutagenic call (Species/Cell Type: Escherichia coli polA (W3110 vs P3478), Assay Type: Rec-assay, DNA effects (bacterial DNA repair), Assay Code: RE2+, Evaluation Type: Evaluation A (Pre-1980)): active; positive | mutagenic call [1]: no conclusion | mutagenic call (Species/Cell Type: Rat primary hepatocytes, Assay Type: Unscheduled DNA synthesis (UDS) in vitro, DNA effects, Assay Code: UDP+, Evaluation Type: Evaluation A (Pre-1980)): active; positive | mutagenic call (Species/Cell Type: Saccharomyces cerevisiae, Assay Type: Mitotic recombination or gene conversion, Assay Code: YEH-, Evaluation Type: Evaluation A (Pre-1980)): inactive; negative | mutagenic call [2]: active; positive | mutagenic call (Species/Cell Type: Salmonella typhimurium, Assay Type: Forward and reverse gene mutation, body fluid assay, Assay Code: BFU+, Evaluation Type: Evaluation A (Pre-1980)): active; positive | mutagenic call [3]: active; positive | mutagenic call (Species/Cell Type: Syrian hamster embryo (SHE) cells, Assay Type: Cell transformation, clonal assay, Assay Code: CTC+D, Dose Response: With dose response, Evaluation Type: Evaluation A (Pre-1980)): active; positive

CN(N=O)C(=O)Nc1ccc(F)cc1
mutagenic call [4]: active; positive

O=C(OC[C@@H]1O[C@H](OC(=O)c2cc(O)c(O)c(OC(=O)c3cc(O)c(O)c(O)c3)c2)[C@@H](OC(=O)c2cc(O)c(O)c(OC(=O)c3cc(O)c(O)c(O)c3)c2)[C@H](OC(=O)c2cc(O)c(O)c(OC(=O)c3cc(O)c(O)c(O)c3)c2)[C@H]1OC(=O)c1cc(O)c(O)c(OC(=O)c2cc(O)c(O)c(O)c2)c1)c1cc(O)c(O)c(OC(=O)c2cc(O)c(O)c(O)c2)c1
mutagenic call [1]: no conclusion | mutagenic call (Species/Cell Type: Nonhuman, Assay Type: Sister-chromatid exchange (SCE) in vivo, Assay Code: SC3+D, Dose Response: With dose response, Evaluation Type: Evaluation B (Post-1980)): active; positive

CN(C)c1ccccc1N=Nc1ccccc1
mutagenic call [3]: active; positive

COc1cc2cc3c4cc(OC)c(OC)cc4cc[n+]3c(C)c2cc1OC (tested in a mixture with another compound)
mutagenic call [5]: no conclusion

O=[N+]([O-])c1ccc(-c2nc(NCCO)c3ccccc3n2)s1
mutagenic call [6]: active; positive

NC(=O)N1c2ccccc2C=Cc2ccccc21
mutagenic call (Species/Cell Type: Human lymphocytes, Assay Type: Sister-chromatid exchange (SCE) in vitro, Assay Code: SCLT, Evaluation Type: Evaluation B (Post-1980)): no conclusion | mutagenic call (Species/Cell Type: Human, Assay Type: Sister-chromatid exchange (SCE) in vitro, Assay Code: SC1T, Evaluation Type: Evaluation B (Post-1980)): no conclusion | mutagenic call [5]: no conclusion

COc1ccc(N)c(OC)c1
call (Species/Cell Type: Nonhuman, Assay Code: CCG-, Evaluation Type: Evaluation A (Pre-1980)): inactive; negative

Cc1cc(Cl)ccc1OCCCC(=O)O
mutagenic call (Species/Cell Type: Drosophila melanogaster, Assay Type: Sex-linked recessive lethal gene mutation, Assay Code: SRL-, Evaluation Type: Evaluation A (Pre-1980)): inactive; negative | mutagenic call (Species/Cell Type: Salmonella typhimurium, Serratia marcesens, Assay Type: Forward and reverse gene mutation, host-mediated assay, Assay Code: HM2-, Evaluation Type: Evaluation A (Pre-1980)): inactive; negative

CC(=O)c1ccc([N+](=O)[O-])s1
mutagenic call [6]: active; positive

S=C(NC1CCCCC1)NC1CCCCC1
mutagenic call (Species/Cell Type: Fischer rat embryo (RLV/1706) cells, Assay Type: Cell transformation, viral enhanced, Assay Code: CTR+, Evaluation Type: Evaluation A (Pre-1980)): active; positive

CCCCCCCCCCCCCC(=O)ON(C(C)=O)c1ccc2c(c1)Cc1ccccc1-2
mutagenic call (Species/Cell Type: Human diploid fibroblasts, Assay Type: Unscheduled DNA synthesis (UDS) in vitro, DNA effects, Assay Code: UDH+, Evaluation Type: Evaluation A (Pre-1980)): active; positive | mutagenic call [5]: no conclusion

C1CN1P1(N2CC2)=NP(N2CC2)(N2CC2)=NP(N2CC2)(N2CC2)=N1
mutagenic call (Species/Cell Type: Neurospora crassa, Assay Type: Forward gene mutation, Assay Code: NEF+, Evaluation Type: Evaluation A (Pre-1980)): active; positive | mutagenic call (Species/Cell Type: Nonhuman, Assay Type: Sister-chromatid exchange (SCE) in vivo, Assay Code: SC3+, Evaluation Type: Evaluation B (Post-1980)): active; positive

O=CCCCC=O
mutagenic call (Species/Cell Type: Chinese hamster ovary (CHO) cells, Assay Type: Forward gene mutation at the HPRT locus, Assay Code: CHO-, Evaluation Type: Evaluation B (Post-1980)): inactive; negative | mutagenic call [4]: active; positive

CCN(N=O)c1ccccc1
mutagenic call (Species/Cell Type: Fischer rat embryo (RLV/1706) cells, Assay Type: Cell transformation, viral enhanced, Assay Code: CTR-, Evaluation Type: Evaluation A (Pre-1980)): inactive; negative | mutagenic call (Species/Cell Type: Mouse (BALB/c-3T3) cells, Assay Type: Cell transformation, Assay Code: CTB-, Evaluation Type: Evaluation A (Pre-1980)): inactive; negative | mutagenic call (Species/Cell Type: Syrian hamster embryo (SHE) cells, Assay Type: Cell transformation, clonal assay, Assay Code: CTC+, Evaluation Type: Evaluation A (Pre-1980)): active; positive

COc1cc2c(c3oc(=O)c4c(c13)CCOC4=O)C1C=COC1O2 (stereo not given)
mutagenic call (Species/Cell Type: Aspergillus nidulans, Assay Type: Forward gene mutation, Assay Code: ASF+*, Activation: With metabolic activation, Evaluation Type: Evaluation A (Pre-1980)): active; positive | mutagenic call [7]: no conclusion | mutagenic call (Species/Cell Type: Drosophila melanogaster, Sex: Male, Assay Type: Heritable translocation test, chromosome aberrations, Assay Code: DHTT, Evaluation Type: Evaluation A (Pre-1980)): no conclusion | mutagenic call (Species/Cell Type: Human lymphocytes or leukocytes, Assay Type: Chromosome aberrations in vitro, Assay Code: CY7T, Evaluation Type: Evaluation A (Pre-1980)): no conclusion | mutagenic call (Species/Cell Type: Vicia faba, Assay Type: Chromosome aberrations, Assay Code: VIC+, Evaluation Type: Evaluation A (Pre-1980)): active; positive

O=C(O)[C@H]1O[C@@H](N(O)c2ccc(-c3ccccc3)cc2)[C@H](O)[C@@H](O)[C@@H]1O
mutagenic call [6]: active; positive

CCN(CC)CCCC(C)Nc1c2ccc(Cl)cc2nc2ccc(OC)cc12 (stereo not given)
mutagenic call [8]: active; positive | mutagenic call (Species/Cell Type: Human lymphocytes, Assay Type: Sister-chromatid exchange (SCE) in vitro, Assay Code: SCL+, Evaluation Type: Evaluation B (Post-1980)): active; positive | mutagenic call (Species/Cell Type: Human, Assay Type: Sister-chromatid exchange (SCE) in vitro, Assay Code: SC1+, Evaluation Type: Evaluation B (Post-1980)): active; positive | mutagenic call (Species/Cell Type: Mammalian polychromatic erythrocytes, Assay Type: Micronucleus test, chromosome aberrations, Assay Code: MNT+, Evaluation Type: Evaluation B (Post-1980)): active; positive | mutagenic call (Species/Cell Type: Mammalian polychromatic erythrocytes, Assay Type: Micronucleus test, chromosome aberrations, Assay Code: MNTT, Evaluation Type: Evaluation A (Pre-1980)): no conclusion | mutagenic call (Species/Cell Type: Mouse, Sex: Male, Assay Type: Sperm morphology, Assay Code: SPI-, Evaluation Type: Evaluation A (Pre-1980)): inactive; negative

CCN(CC)CCCNC(=O)N/N=C/c1ccc([N+](=O)[O-])o1
mutagenic call (Species/Cell Type: Escherichia coli WP2 UVRA, Assay Type: Tryptophan reverse gene mutation, Assay Code: WPU+, Evaluation Type: Evaluation A (Pre-1980)): active; positive

Cc1cc(N=Nc2ccc(S(=O)(=O)O)cc2)c(N)cc1N
mutagenic call [2]: active; positive

Cc1ccc(N2CCN(C)CC2)c2c(=O)c3ccc(Cl)cc3sc12
mutagenic call [5]: no conclusion

COc1ccc2nc3cc(Cl)ccc3c(NCCCNCCCl)c2c1
mutagenic call (Species/Cell Type: Chinese hamster ovary (CHO) cells, Assay Type: Forward gene mutation at the HPRT locus, Assay Code: CHO+D, Dose Response: With dose response, Evaluation Type: Evaluation A (Pre-1980)): active; positive | mutagenic call (Species/Cell Type: Human diploid fibroblasts, Assay Type: Unscheduled DNA synthesis (UDS) in vitro, DNA effects, Assay Code: UDH-, Evaluation Type: Evaluation A (Pre-1980)): inactive; negative | call (Species/Cell Type: Nonhuman, Assay Code: CCGT, Evaluation Type: Evaluation A (Pre-1980)): no conclusion | mutagenic call (Species/Cell Type: Saccharomyces cerevisiae, Assay Type: Forward and reverse gene mutation, mitotic recombination and gene conversion, host-mediated assay, Assay Code: HME+, Evaluation Type: Evaluation A (Pre-1980)): active; positive | mutagenic call (Species/Cell Type: Saccharomyces cerevisiae, Assay Type: Mitotic recombination or gene conversion, Assay Code: YEC+, Evaluation Type: Evaluation A (Pre-1980)): active; positive | mutagenic call [6]: active; positive

N#CS
mutagenic call (Species/Cell Type: Glycine max (soybean), Assay Type: Gene mutation, Assay Code: GLM-, Evaluation Type: Evaluation A (Pre-1980)): inactive; negative | mutagenic call [5]: no conclusion

O=[N+]([O-])c1ccc(N2CCN(Cc3ccccc3)CC2)c2c1no[n+]2[O-]
mutagenic call [6]: active; positive

CC(Br)Br
mutagenic call [7]: no conclusion | mutagenic call [8]: active; positive | mutagenic call (Species/Cell Type: Tradescantia species, Assay Type: Gene mutation, Assay Code: TRM-, Evaluation Type: Evaluation A (Pre-1980)): inactive; negative

Nc1cccc2cc3ccccc3nc12
mutagenic call (Species/Cell Type: Saccharomyces cerevisiae, Assay Type: Forward gene mutation, Assay Code: YEFT, Evaluation Type: Evaluation A (Pre-1980)): no conclusion | mutagenic call (Species/Cell Type: Saccharomyces cerevisiae, Assay Type: Reverse gene mutation, Assay Code: YERT, Evaluation Type: Evaluation A (Pre-1980)): no conclusion
